Experimental data reported in patent publication US9492471B2, “Methods of treating a disease or disorder associated with Bruton'S Tyrosine Kinase” (Celgene Avilomics Research, Inc., priority 2013, dated 2016).
Where two headings read alike, the source gives them in different places.

Legend:
Test in all cases: HotSpot kinase profiling
Assay type in all cases: biochemical
[1] = target: T1, CDK7/cyclin H (Homo sapiens, UniProt P50613)
T1 construct: purchased Reaction Biology Corp
Summary of the method: (§1)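 Radiometric kinase assay with P81 filter capture; each kinase was added to fresh substrate plus cofactors in reaction buffer and incubated 2 h at room temperature. Unreacted phosphate was washed off with 0.1% phosphoric acid before detection; percent inhibition is relative to DMSO control, averaged over replicates.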

[2] = target: T2, JAK2 (Homo sapiens, UniProt O60674)
T2 construct: purchased Reaction Biology Corp
Summary of the method: as §1

[3] = target: T3, PAK5 (Homo sapiens, UniProt Q9P286)
T3 construct: purchased Reaction Biology Corp
Summary of the method: as §1

[4] = target: T4, PKCb1 (Homo sapiens, UniProt P05771)
T4 construct: purchased Reaction Biology Corp
Summary of the method: as §1

[5] = target: T5, PKCg (Homo sapiens, UniProt P05129)
T5 construct: purchased Reaction Biology Corp
Summary of the method: as §1

[6] = target: T6, ROCK1 (Homo sapiens, UniProt Q13464)
T6 construct: purchased Reaction Biology Corp
Summary of the method: as §1

[7] = target: T7, RSK1 (Homo sapiens, UniProt Q15418)
T7 construct: purchased Reaction Biology Corp
Summary of the method: as §1

[8] = target: T8, TYK1/LTK (Homo sapiens, UniProt P29376)
T8 construct: purchased Reaction Biology Corp
Summary of the method: as §1

[9] = target: T9, ZAP70 (Homo sapiens, UniProt P43403)
T9 construct: purchased Reaction Biology Corp
T9 sequence (P43403 1-619): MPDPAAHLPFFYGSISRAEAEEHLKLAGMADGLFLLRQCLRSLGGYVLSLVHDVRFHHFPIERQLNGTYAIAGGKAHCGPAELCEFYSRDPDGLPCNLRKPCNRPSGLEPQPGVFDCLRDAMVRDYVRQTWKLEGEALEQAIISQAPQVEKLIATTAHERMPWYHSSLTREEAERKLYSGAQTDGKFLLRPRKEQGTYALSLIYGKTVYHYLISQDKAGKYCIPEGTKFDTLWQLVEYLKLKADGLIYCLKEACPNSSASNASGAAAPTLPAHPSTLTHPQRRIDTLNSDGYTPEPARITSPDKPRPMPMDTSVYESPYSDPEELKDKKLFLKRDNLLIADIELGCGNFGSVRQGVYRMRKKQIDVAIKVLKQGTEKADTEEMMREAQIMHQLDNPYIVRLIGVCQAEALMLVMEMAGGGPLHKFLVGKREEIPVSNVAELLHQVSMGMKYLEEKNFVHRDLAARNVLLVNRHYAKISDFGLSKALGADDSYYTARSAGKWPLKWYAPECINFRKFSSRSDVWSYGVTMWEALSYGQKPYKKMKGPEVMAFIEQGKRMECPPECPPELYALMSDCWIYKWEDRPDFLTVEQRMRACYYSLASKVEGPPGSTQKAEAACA
Summary of the method: as §1

[10] = target: T10, c-MER (Homo sapiens, UniProt Q12866)
T10 construct: purchased Reaction Biology Corp
T10 sequence (Q12866 21-999): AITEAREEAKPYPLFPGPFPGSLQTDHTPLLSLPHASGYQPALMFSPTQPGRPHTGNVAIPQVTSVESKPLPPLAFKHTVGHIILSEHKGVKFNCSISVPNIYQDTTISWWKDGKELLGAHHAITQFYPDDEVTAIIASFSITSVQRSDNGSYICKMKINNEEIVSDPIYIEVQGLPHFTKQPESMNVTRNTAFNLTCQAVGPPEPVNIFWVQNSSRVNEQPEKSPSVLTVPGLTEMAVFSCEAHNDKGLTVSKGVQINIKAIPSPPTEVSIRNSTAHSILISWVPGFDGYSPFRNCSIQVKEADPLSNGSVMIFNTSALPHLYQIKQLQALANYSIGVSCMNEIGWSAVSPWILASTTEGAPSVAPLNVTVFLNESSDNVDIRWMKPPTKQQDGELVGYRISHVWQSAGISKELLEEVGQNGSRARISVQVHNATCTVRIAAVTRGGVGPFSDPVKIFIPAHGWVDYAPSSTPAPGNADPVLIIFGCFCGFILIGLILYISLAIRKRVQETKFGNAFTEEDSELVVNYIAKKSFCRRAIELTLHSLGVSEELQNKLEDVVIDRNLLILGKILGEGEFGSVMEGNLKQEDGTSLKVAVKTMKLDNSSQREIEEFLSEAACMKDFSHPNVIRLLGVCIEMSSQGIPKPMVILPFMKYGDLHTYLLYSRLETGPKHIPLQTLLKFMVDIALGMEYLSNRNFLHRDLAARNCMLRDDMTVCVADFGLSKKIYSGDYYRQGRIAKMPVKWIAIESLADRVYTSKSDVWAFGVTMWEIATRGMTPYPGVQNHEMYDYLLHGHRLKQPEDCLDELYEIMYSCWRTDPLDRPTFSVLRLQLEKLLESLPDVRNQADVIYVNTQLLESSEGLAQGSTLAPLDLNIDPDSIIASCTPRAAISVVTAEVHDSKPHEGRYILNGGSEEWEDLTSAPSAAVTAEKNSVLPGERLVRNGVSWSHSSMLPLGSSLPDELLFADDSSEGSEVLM
Summary of the method: as §1

[11] = read-out: % Enzyme Activity (relative to DMSO controls) Run 1
[12] = read-out: % Enzyme Activity (relative to DMSO controls) Run 2

T2 sequence (O60674 whole entry): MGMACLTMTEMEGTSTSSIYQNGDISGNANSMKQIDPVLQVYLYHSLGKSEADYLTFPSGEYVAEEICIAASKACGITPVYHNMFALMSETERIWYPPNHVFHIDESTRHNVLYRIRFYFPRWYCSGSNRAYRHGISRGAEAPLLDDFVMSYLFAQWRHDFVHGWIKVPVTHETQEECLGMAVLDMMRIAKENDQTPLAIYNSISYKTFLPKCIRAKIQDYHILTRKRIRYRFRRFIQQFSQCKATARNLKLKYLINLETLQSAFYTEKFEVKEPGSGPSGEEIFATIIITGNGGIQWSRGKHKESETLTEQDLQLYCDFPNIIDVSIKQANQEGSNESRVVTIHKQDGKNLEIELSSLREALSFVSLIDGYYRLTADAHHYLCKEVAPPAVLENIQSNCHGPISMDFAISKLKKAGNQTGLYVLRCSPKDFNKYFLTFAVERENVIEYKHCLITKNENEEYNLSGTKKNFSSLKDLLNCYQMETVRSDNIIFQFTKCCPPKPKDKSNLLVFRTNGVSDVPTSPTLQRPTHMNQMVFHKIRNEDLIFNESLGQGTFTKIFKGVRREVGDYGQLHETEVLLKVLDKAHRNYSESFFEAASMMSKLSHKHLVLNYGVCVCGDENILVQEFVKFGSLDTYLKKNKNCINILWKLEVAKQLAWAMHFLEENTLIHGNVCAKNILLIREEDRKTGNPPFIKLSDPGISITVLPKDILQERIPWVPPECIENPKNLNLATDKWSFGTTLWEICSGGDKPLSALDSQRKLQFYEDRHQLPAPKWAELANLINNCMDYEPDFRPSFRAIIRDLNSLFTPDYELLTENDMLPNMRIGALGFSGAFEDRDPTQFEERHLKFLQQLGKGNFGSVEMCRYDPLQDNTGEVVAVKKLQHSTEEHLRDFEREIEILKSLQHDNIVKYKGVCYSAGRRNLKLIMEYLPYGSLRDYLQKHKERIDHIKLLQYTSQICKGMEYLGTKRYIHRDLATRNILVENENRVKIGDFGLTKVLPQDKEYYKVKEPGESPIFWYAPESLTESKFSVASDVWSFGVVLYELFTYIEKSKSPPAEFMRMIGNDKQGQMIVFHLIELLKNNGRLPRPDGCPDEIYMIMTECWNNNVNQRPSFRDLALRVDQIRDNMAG
T1 sequence (P50613 whole entry): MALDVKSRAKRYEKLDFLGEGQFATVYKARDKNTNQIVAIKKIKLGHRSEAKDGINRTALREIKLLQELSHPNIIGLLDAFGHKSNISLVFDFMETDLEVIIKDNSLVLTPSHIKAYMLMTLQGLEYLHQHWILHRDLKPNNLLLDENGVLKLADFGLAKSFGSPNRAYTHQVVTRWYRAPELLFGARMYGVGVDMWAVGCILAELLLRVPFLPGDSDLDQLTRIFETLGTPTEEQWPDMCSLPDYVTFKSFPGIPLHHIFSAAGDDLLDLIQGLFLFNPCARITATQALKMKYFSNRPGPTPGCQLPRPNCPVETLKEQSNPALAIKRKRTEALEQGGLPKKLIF
T1 sequence (P51946 whole entry partner): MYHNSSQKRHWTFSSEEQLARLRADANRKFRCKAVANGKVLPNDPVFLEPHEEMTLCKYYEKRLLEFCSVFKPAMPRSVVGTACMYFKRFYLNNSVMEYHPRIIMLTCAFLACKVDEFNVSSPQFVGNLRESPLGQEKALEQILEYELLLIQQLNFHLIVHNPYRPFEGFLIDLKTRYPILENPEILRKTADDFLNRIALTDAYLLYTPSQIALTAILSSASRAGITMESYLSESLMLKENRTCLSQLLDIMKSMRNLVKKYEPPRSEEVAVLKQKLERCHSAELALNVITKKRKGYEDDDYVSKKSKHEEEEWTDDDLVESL
T1 sequence (P51948 whole entry partner): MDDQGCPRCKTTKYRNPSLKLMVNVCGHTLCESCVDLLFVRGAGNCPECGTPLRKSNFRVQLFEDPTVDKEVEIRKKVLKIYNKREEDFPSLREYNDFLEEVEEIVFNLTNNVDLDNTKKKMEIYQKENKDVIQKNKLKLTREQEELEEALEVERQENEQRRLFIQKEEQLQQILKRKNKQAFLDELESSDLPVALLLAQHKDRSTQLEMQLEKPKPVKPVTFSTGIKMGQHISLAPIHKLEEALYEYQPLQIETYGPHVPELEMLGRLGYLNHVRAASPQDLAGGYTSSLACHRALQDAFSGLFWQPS
T7 sequence (Q15418 whole entry): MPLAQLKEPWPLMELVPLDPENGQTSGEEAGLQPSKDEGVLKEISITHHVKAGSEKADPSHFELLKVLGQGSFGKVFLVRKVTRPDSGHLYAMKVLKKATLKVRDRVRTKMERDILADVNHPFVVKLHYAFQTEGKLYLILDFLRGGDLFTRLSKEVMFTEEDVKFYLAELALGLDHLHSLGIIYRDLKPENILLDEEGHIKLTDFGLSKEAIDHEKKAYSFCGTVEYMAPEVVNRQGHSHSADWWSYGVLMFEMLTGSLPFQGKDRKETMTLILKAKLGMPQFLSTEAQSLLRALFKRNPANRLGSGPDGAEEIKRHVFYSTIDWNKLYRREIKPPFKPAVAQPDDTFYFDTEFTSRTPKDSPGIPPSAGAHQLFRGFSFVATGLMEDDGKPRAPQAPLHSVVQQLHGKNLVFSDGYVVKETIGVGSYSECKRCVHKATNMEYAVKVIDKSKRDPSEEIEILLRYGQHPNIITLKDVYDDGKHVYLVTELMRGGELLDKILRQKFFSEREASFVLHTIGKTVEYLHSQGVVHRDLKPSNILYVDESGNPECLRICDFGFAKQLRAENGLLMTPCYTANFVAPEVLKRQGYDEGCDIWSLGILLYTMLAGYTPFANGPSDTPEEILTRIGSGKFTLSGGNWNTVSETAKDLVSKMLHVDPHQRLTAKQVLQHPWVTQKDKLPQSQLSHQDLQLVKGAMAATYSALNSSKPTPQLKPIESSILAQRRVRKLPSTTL
T4 sequence (P05771 whole entry): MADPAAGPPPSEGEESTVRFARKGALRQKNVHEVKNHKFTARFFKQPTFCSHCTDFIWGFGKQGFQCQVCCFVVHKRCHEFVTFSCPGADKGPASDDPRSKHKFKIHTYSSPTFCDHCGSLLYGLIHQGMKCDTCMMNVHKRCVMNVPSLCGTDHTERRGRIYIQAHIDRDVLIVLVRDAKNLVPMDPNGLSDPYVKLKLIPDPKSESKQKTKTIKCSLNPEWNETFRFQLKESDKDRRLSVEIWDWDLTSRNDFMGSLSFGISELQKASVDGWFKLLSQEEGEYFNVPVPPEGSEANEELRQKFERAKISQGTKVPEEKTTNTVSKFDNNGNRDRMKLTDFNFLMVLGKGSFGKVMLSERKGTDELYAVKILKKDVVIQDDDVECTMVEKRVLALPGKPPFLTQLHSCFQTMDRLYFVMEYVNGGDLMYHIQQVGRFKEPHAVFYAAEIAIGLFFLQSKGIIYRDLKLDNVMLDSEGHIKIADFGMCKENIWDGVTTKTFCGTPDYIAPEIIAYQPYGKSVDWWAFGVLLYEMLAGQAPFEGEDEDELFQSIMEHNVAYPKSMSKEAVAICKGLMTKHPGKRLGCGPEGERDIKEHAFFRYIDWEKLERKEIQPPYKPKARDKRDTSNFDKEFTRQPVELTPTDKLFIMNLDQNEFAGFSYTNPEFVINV
T6 sequence (Q13464 whole entry): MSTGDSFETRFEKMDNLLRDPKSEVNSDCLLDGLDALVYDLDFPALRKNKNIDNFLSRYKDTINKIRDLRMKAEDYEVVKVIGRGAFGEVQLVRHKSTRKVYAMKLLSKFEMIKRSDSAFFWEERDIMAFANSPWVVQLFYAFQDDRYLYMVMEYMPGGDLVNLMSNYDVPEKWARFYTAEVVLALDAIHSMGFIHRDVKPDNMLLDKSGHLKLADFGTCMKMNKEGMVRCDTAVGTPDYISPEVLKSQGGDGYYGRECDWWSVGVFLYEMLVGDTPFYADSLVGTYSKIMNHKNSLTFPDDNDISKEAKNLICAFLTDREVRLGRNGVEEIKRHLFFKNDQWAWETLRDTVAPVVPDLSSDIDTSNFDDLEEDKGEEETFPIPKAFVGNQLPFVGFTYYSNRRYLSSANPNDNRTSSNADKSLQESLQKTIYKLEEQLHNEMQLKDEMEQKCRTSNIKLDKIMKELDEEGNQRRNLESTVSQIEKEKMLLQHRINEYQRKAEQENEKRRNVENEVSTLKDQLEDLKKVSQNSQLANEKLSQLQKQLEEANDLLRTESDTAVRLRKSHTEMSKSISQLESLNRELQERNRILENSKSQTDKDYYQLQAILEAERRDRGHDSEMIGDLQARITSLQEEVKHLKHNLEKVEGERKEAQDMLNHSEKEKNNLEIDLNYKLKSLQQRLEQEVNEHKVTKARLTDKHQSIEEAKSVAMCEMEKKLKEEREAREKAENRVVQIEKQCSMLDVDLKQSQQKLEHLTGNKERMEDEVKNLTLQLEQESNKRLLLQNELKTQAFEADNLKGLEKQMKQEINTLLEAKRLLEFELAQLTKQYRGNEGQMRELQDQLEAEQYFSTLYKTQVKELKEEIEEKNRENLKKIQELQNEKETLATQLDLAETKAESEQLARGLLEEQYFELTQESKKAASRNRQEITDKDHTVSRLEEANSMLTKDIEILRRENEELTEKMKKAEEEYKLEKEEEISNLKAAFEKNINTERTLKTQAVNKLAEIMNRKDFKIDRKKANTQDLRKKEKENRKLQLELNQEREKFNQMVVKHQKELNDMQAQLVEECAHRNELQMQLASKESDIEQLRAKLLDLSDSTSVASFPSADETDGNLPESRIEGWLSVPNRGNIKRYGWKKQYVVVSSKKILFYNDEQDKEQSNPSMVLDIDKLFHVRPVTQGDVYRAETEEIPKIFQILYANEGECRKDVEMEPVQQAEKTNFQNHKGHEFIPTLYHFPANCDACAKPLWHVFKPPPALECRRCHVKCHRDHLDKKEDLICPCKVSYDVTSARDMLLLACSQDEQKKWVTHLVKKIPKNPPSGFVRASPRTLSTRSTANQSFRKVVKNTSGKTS

`C=CC(=O)Nc1cccc(Nc2nc(Nc3ccc(OCCOC)c(F)c3)ncc2F)c1` [Compound 2] was tested, and the inhibition at 3 µM [1] was 2.36%, the remaining activity at 3 µM [1, 11] was 98.1% and the remaining activity at 3 µM [1, 12] was 97.2%. It also gave an inhibition at 3 µM [2] of -11.6%, a remaining activity at 3 µM [2, 11] of 109% and a remaining activity at 3 µM [2, 12] of 115%. The inhibition at 3 µM [3] was -27.4%, the remaining activity at 3 µM [3, 11] was 123% and the remaining activity at 3 µM [3, 12] was 132%. The inhibition at 3 µM [4] was 27.6%, the remaining activity at 3 µM [4, 11] was 72.7% and the remaining activity at 3 µM [4, 12] was 72.1%. It also gave an inhibition at 3 µM [5] of 16%, a remaining activity at 3 µM [5, 11] of 83.9% and a remaining activity at 3 µM [5, 12] of 84.2%. For the same compound, the inhibition at 3 µM [6] was -6.39%, the remaining activity at 3 µM [6, 11] was 108% and the remaining activity at 3 µM [6, 12] was 105%. It also gave an inhibition at 3 µM [7] of 27.1%, a remaining activity at 3 µM [7, 11] of 73.3% and a remaining activity at 3 µM [7, 12] of 72.5%. It also gave an inhibition at 3 µM [8] of 23.2%, a remaining activity at 3 µM [8, 11] of 77.8% and a remaining activity at 3 µM [8, 12] of 75.8%. The inhibition at 3 µM [9] was -9.21%, the remaining activity at 3 µM [9, 11] was 110% and the remaining activity at 3 µM [9, 12] was 108%. For the same compound, the inhibition at 3 µM [10] was 33.6%, the remaining activity at 3 µM [10, 11] was 66.5% and the remaining activity at 3 µM [10, 12] was 66.4%.
